Measurements as given in patent publication US12492232B2, “Methods for producing proteins” (South Australian Health and Medical Research Institute …, priority 2018, dated 2025).
“Also recorded” adds a separate entry of the source.

Key:
[1] = system: CHO cells stably expressing Gaussia luciferase (GLuc); assay: Secreted Gaussia luciferase assay in CHO cells stably expressing GLuc transfected with Rheb vectors; format: cell-based; conditions: for increase in secreted Gaussia luciferase: day 7, normalised to cell number
Method: CHO cells stably expressing Firefly luciferase (FLuc) or Gaussia luciferase (GLuc) as indicated were transfected using Lipofectamine3000 with an empty vector (EV) or vectors for Rheb WT, S21L, T23M, G29S, Y35N or E40K and also treated with the mTOR inhibitor AZD8055 at 100 nM for the total duration where indicated. Fluc and GLuc assays were performed 24 h after transfection and then every 48 h for 7 days. Assay results are normalised to cell number. GLuc-CHO cells were harvested for SDS-PAGE and Western Blot analysis at the 168 h (7-day) time-point to probe for intracellular GLuc, FLAG (Rheb) and actin, as ‘loading control’. […] However, Rheb-T23M and —Y35N caused a significant 3-fold increase in secreted Gaussia luciferase that was also seen with E40K and was prevented by treatment with AZD8055 (C/D [histogram of day 7]). In (E), secreted GLuc was monitored every 4 h from 24 h to 60 h showing the rate of secretion of GLuc was higher when Rheb-T23M is expressed as compared to Rheb-Y35N. The pattern for intracellular levels of Gaussia luciferase (assessed by immunoblot of cell lysates harvested at 7 days post transfection) more closely resemble those intracellular firefly luciferase (F) with little change compared to either the empty vector or WT while still retaining heightened mTORC1 signalling as indicated by the elevated levels of P-S6K1 Thr389 compared to cells transfected with the empty vector. CHO cells expressing Rheb-T23M, Y35N and E40K show a small increases in general protein synthesis but a marked increase in secreted Gaussia protein that is blocked by mTOR inhibition. Thus, Rheb[T23M] selectively promotes production of the secreted protein GLuc in a process that requires mTOR signalling.
Constructs were introduced into CHO cells using Lipofectamine3000 (Life Technologies) according to the manufacturer's protocol. Cell lines stably expressing secreted luciferase were generated by cloning the GLuc gene with a signal sequence from Nanolight Technology (see paper sent with this version) and cloning this into the pcDNA4 commercially available vector where gene expression was driven by a CMV promoter. The subsequent vectors were transfected, using lipofectamine, into CHO-S freestyle suspension cells and grown in CD-CHO media and then stable transfectant pools selected by addition of zeocin antibiotic. Once stable pools had emerged these were subjected to limited dilution cloning to obtain a range of pools with different secreted GLuc expression levels. Methods as are described, for example, in Josse et al. (2009) Biotechnology and Bioengineering 105: 556-566.
For Gaussia luciferase, we employed the BioLux® Gaussia Luciferase Assay Kit (New England Biolabs (NEB), Cat. No. E3300S) and for firefly luciferase the Luciferase Assay System from Promega (Cat. No. E1500). Cells were grown in Ham's F12 medium F12 nutrient mix, Ham's (Life Technologies, Cat. No. 11765054).
CHO cells stably expressing Firefly luciferase (FLuc; which is cytoplasmic) or Gaussia luciferase (GLuc; which is secreted) as indicated were transfected using Lipofectamine3000 with an empty vector (EV) or vectors for Rheb WT, S21L, T23M, G29S, Y35N or E40K and treated with the mTOR inhibitor AZD8055 at 100 nM for the total duration where appropriate. Fluc and GLuc assays were performed at 24 h after transfection and then every 48 h for 7 days. Assay results were normalised to cell number. […]

mTORC1 signalling = mTORC1 signalling (Western blot, S6K1 and rpS6) in transfected CHO cells starved of serum and amino acids, with or without TSC1/2 co-transfection; format: cell-based; conditions: for mTORC1 signalling in the absence of upstream activation: no serum 16 h, D-PBS 1 h, compared to empty vector and Rheb-WT; for mTORC1 signalling when co-transfected with TSC1/TSC2: no serum and amino acids
Method: (§1) GTP. GST-Rheb bound to GDP or GTP was pulled down using glutathione beads and the nucleotides were then separated by thin-layer chromatography and visualized by phosphorimager. The positions of GDP and GTP are shown (FIG. 1A). […] FIGS. 1C-1D: CHO cells were co-transfected using Lipofectamine 3000 with vectors encoding wildtype (WT) Rheb or the indicated mutants and TSC1/2 as indicated. 36 h after transfection, cells were transferred to Ham's F12 media lacking FBS for 16 h. Cells were the transferred to Dulbecco's phosphate-buffered saline (D-PBS, which lacks amino acids) for 1 h before cell lysates were harvested for SDS-PAGE and Western Blotting analysis using the indicated antibodies.

TSC1/TSC2 = assay: GAP assay: TSC1/TSC2-promoted hydrolysis of GTP bound to recombinant GST-Rheb; format: biochemical; conditions: FLAG-TSC1, FLAG-TSC2, [α-32P]GTP, n=3
Description: as §1, with “FIGS. 1A-1B: Recombinant GST-Rheb proteins were subjected to GAP assay in the presence of FLAG-TSC1, FLAG-TSC2 and [α-^32P] GTP.” for “GTP.”, “antibodies. […] This effect is consistent with lack of sensitivity of the mutant Rhebs to TSC1/TSC2. Thus the Rheb mutants S21L, T23M, G29S, Y35N and E40K promote mTORC1 signalling in the absence of upstream activation due to insensitivity to the GAP activity of the TSC complex.” for “antibodies.”
A) Recombinant GST-Rheb proteins were subjected to GTPase assays in the presence of FLAG-TSC1, FLAG-TSC2 and [α-^32P]GTP. Nucleotide-bound GST-Rheb was purified from the reaction mixture using 20 μl glutathione bead slurry. Radioactive GDP and GTP were separated by thin-layer chromatography and visualized by phosphorimager.

ExpiCHO-S™ cells = assay: Rabbit IgG secretion by ExpiCHO-S cells stably expressing Rheb variants (Easy-Titer Rabbit IgG Assay); format: cell-based; conditions: single replicate; compared to Rheb-WT or Rheb-Y35N
Method: Materials and Methods: ExpiCHO-S™ cells were purchased from ThermoFischer Scientific and cultured in ExpiCHO™ Expression Medium at 37° C. at 8% CO2. […] Transfected cells were grown in 600 μg/mL […] for 6 weeks. Surviving cells were plated as single cells in a 96-well plate and monoclonal colonies selected for FLAG-Rheb expression.
Rabbit IgG secretion was determined using the ExpiCHO™ Expression system according to the manufacturer's instructions. Briefly, ExpiCHO™ cells expressing either endogenous Rheb or stably expressing exogenous Rheb were seeded at 6×10^6 cells/mL in 25 mL of ExpiCHO™ Expression Medium and transfected with 20 μg of a pcDNA3.1 vector encoding heavy and light chains of Rabbit IgG at a 1:2 ratio of heavy chain:light chain using ExpiFectamine™ CHO Reagent. 24 hours after transfection, cells were feed with ExpiCHO™ Feed and ExpiFectamine™ CHO Enhancer and transferred to 32° C., 5% CO2. Cells were allowed to grow for 10 days with 100 μL samples taken every day. After 10 days, Cells were pelleted by centrifugation at 4000×g for 30 minutes at 4° C. and the supernatant filtered through a […] PVFD filter and collected. IgG yield was determined using Easy-Titer™ Rabbit IgG Assay kit and calculated from a standard curve.

[2] = system: mTORC1 localisation at the lysosome; assay: Immunofluorescence of mTOR and LAMP1 colocalisation in serum-starved transfected CHO cells; format: cell-based; conditions: medium lacking FBS for 16 h
Method: (§2) 24 h after transfection cells were transferred to medium lacking FBS for 16 hours. Cells were fixed with 4% paraformaldehyde, permeabilized with 0.05% Triton X-100, blocked with 10% normal donkey serum before LAMP1 and then anti-mTOR antibodies were applied overnight. Alexa Fluor™ 488 and 594-labelled secondary antibodies were applied before cells were mounted and stained with DAPI.
as §2, with “h.” for “hours.”, “mTOR” for “then anti-mTOR”, “594” for “594-labelled”

[3] = system: mTORC1 and ER Stress activation markers; assay: Western blot for mTORC1 and ER stress activation markers in ExpiCHO cells stably expressing Rheb variants; format: cell-based
[4] = system: CHO cells stably expressing Firefly luciferase (FLuc); assay: Firefly luciferase assay in CHO cells stably expressing FLuc transfected with Rheb vectors; format: cell-based; conditions: day 7, normalised to cell number
Method: CHO cells stably expressing Firefly luciferase (FLuc) or Gaussia luciferase (GLuc) as indicated were transfected using Lipofectamine3000 with an empty vector (EV) or vectors for Rheb WT, S21L, T23M, G29S, Y35N or E40K and also treated with the mTOR inhibitor AZD8055 at 100 nM for the total duration where indicated. Fluc and GLuc assays were performed 24 h after transfection and then every 48 h for 7 days. Assay results are normalised to cell number. GLuc-CHO cells were harvested for SDS-PAGE and Western Blot analysis at the 168 h (7-day) time-point to probe for intracellular GLuc, FLAG (Rheb) and actin, as ‘loading control’. […] In (E), secreted GLuc was monitored every 4 h from 24 h to 60 h showing the rate of secretion of GLuc was higher when Rheb-T23M is expressed as compared to Rheb-Y35N. The pattern for intracellular levels of Gaussia luciferase (assessed by immunoblot of cell lysates harvested at 7 days post transfection) more closely resemble those intracellular firefly luciferase (F) with little change compared to either the empty vector or WT while still retaining heightened mTORC1 signalling as indicated by the elevated levels of P-S6K1 Thr389 compared to cells transfected with the empty vector. […]

Molecule: COc1ccc(-c2ccc3c(N4CCOC[C@@H]4C)nc(N4CCOC[C@@H]4C)nc3n2)cc1CO [AZD8055, reference compound]
- effect on the Rheb mutant-induced increase in secreted Gaussia luciferase ([1]; AZD8055 at 100 nM for the total duration): prevented

Molecule: G29S: Rheb mutant G29S created by site-directed mutagenesis of human Rheb [Rheb G29S]
- mTORC1 signalling in the absence of upstream activation (mTORC1 signalling): increased mTORC1 signalling over both the empty vector and Rheb-WT
- mTORC1 signalling when co-transfected with TSC1/TSC2 (mTORC1 signalling): no reduction
- hydrolysis of GTP bound to Rheb promoted by TSC1/TSC2 (TSC1/TSC2): partial resistance; also recorded: a small degree of hydrolysis

Molecule: G63A: Rheb mutant G63A tested in the GAP assay [Rheb G63A]
- hydrolysis of GTP bound to Rheb promoted by TSC1/TSC2 (TSC1/TSC2): completely unable to promote hydrolysis of GTP; also recorded: did not promote hydrolysis of GTP

Molecule: Q64L: Rheb mutant Q64L tested in the GAP assay [Rheb Q64L]
- hydrolysis of GTP bound to Rheb promoted by TSC1/TSC2 (TSC1/TSC2): partial resistance; also recorded: a small degree of hydrolysis

Molecule: Rheb-E40K: human Rheb protein with a lysine variant at residue 40 (E40K), SEQ ID NO. 5
- mTORC1 signalling in the absence of upstream activation (mTORC1 signalling): increased mTORC1 signalling over both the empty vector and Rheb-WT
- mTORC1 signalling when co-transfected with TSC1/TSC2 (mTORC1 signalling): no reduction
- rate of IgG secretion determined daily over 10 days (ExpiCHO-S™ cells): maintain a constant rate of IgG secretion over a longer period
- mTOR localisation to the lysosome (overlap with LAMP1) [2]: promote localisation; also recorded: mTORC1 localisation at the lysosome is maintained
- ER stress response (Western blot markers) [3]: mild ER stress response
- mTORC1 signalling (Western blot markers) [3]: increased mTORC1 signalling
- increase in secreted Gaussia luciferase [1]: 3 fold
- hydrolysis of GTP bound to Rheb promoted by TSC1/TSC2 (TSC1/TSC2): completely unable to promote hydrolysis of GTP; also recorded: did not promote hydrolysis of GTP

Molecule: Rheb-S21L: Rheb mutant S21L created by site-directed mutagenesis of human Rheb
- mTORC1 signalling in the absence of upstream activation (mTORC1 signalling): increased mTORC1 signalling over both the empty vector and Rheb-WT
- mTORC1 signalling when co-transfected with TSC1/TSC2 (mTORC1 signalling): no reduction
- hydrolysis of GTP bound to Rheb promoted by TSC1/TSC2 (TSC1/TSC2): completely unable to promote hydrolysis of GTP; also recorded: did not promote hydrolysis of GTP

Molecule: Rheb-Y35N: human Rheb protein with an asparagine variant at residue 35 (Y35N), SEQ ID NO. 4
- mTORC1 signalling in the absence of upstream activation (mTORC1 signalling): increased mTORC1 signalling over both the empty vector and Rheb-WT
- mTORC1 signalling when co-transfected with TSC1/TSC2 (mTORC1 signalling): no reduction
- increase in synthesis of intracellular Firefly luciferase compared to the empty vector [4]: ca. 1.2 fold
- mTOR localisation to the lysosome (overlap with LAMP1) [2]: promote localisation; also recorded: strong mTOR localisation on lysosomes
- increase in secreted Gaussia luciferase [1]: 3 fold
- hydrolysis of GTP bound to Rheb promoted by TSC1/TSC2 (TSC1/TSC2): completely unable to promote hydrolysis of GTP; also recorded: did not promote hydrolysis of GTP
